For 21 molecules, IC50 results are on record in patent US11591301B2, “Indoleamine-2,3-dioxygenase inhibitor, preparation method therefor and use thereof” (HINOVA PHARMACEUTICALS INC., priority 2018, dated 2023).

Assay [1] has as its target IDO1 protease activity in Hela cells (Homo sapiens (Human), UniProt P14902). In words: Inhibition of IDO protease in HeLa cells (IDO/kynurenine experiment, IFN-γ induced). The conditions noted are these: 10 ng/mL IFN-γ, 48 h, OD480 nm, read-out: IC50, inhibitory activity against IDO1 protease activity in Hela cells. The class given is cell-based. The protocol: 2) Experimental Method for Compound Assay 2.1 Seeding HeLa Cells into 96 Well Plate
The medium was taken out from the flask and the cells were washed with PBS. TrypLE solution was added to the flask to make the cells separate. The cells were further washed once with fresh medium containing 10% FBS, and then re-suspended in the medium until the final concentration was 2.3×10^6/mL. Only cells with activity greater than 90% can be used for detection. HeLa cells were planted into 100 μL suitable growth median 96 well plate at 3000 cells/well. The cells were incubated at 37° C. under 5% CO2 overnight.
The compound was diluted to the concentration of 10 mM with DMSO, that was then continuously diluted 3 times to get 9 concentrations. 5 μL compound was added into 45 μL media as the median dilution (10 times dilution, containing 10% DMSO). 96 μL fresh growth media were added to each well to reach the total volume of 196 μL. 2 μL compound solution was taken from the mid-diluted solution and added to the cells in the wells of the assay plate, and then incubated in a 5% CO2 incubator at 37° C. for 30 minutes. 2 μL human IFN-γ solution was added to reach a total volume of 200 μL, with the final concentration of 10 ng/mL, and the final concentration is 0.1%. The cells were incubated in 5% CO2 incubator at 37° C. for 48 h.
After incubating for another 48 hours in a 5% CO2 incubator at 37° C., 140 μL supernatant was added to each well and transferred to a new 96-well plate. 10 μL of 6.1N CCl3COOH was further added to each well, and incubated at 50° C. for 30 min after sealing. The plate was then centrifuged at 2500 rpm for 10 minutes. 100 μL supernatant in each well was transferred to another 96-well assay plate and mixed with 100 μL of 6% (w/v) p-dimethylaminobenzaldehyde. EnSpire was used to read the plate at OD480 nm.
The average data of HC (high control: 10 ng/mL IFN-γ) and LC (low control: no IFN-γ) were calculated for each screening plate. Percent inhibition of compound well (% inh)=100*(aveHC−cpd well)/(aveHC−ave LC). Finally, GraphPad Prism 6 software was used to calculate the IC50 values of compounds and draw the effect-concentration curve.

Assay [2] deals with human IDO1 protease (Homo sapiens (Human), UniProt P14902). In words: Inhibitory activity against human IDO1 protease (absorbance test method). Conditions: IDO1 (His-tag) enzyme, absorbance at 320 nm. The class given is biochemical. The method, then:
IDO1 (His-tag) enzyme(BPS Bioscience), L-tryptophan (Sigma), methylene blue (Sigma), Catalase originated from the liver of cattle (Sigma), L-ascorbic acid (Sigma), glycerol (Sigma), potassium dihydrogen phosphate solution (Sigma), Tween 20 (Sigma), automatic sampling platformLiquid handler (Bravo & Echo), microplate ReaderSpectraMax M5e (Molecular Devices).
2) Test Method of Compounds: The Compounds are Determined by Absorbance Test Method:
The tested compounds are dissolved in DMSO to prepare a high concentration of storage solution. The stock solution of reference compound was diluted with DMSO to prepare a 100× solution. In the first column of the working plate, 8 μL above tested compounds and 8 μL 100× reference compound were respectively added as the highest concentration, and then the highest concentrations were subjected to three times dilution to obtain 11 concentrations and prepare 100× solution. 0.5 μL solution was transferred from the above plate to the detection plate. To each well was added 0.5 μL 100× compound solution. For HPE and ZPE control wells, 0.5 μL 100% DMSO was added. 25 μL 2×IDO1 (His-tag) enzyme solution (containing L-ascorbic acid, methylene blue, and catalase) was added to each well. 25 μL reaction solution without IDO1 (His-tag) enzyme was added into HPE control well. The test plate was centrifugated at 1000 rpm for 1 minute to mix well. Then, the test plate was incubated at room temperature for 30 minutes. 25 μL above 2× substrate (L-tryptophan) solution was added to each well. The test plate was centrifugated at 1000 rpm for 1 minute to mix well. The detection plate was placed on ELISA (SpectraMax M5e), the temperature was set at 25° C., and the absorbance (OD value) was measured at 320 nm every 10 minutes till 60 minutes.
Calculating the increase ratio of absorbance: the slope of the absorbance increase curve from 10 min to 60 min is derived from SpectralMax M5e. The inhibition coefficient of compound was calculated: the inhibition ratio of compound=(the absorbance increase ratio of ZPE control well−the absorbance increase ratio of compound well)/(the absorbance increase ratio of ZPE control well−the absorbance increase ratio of HPE control well)×100. Results was analyzed by Prism 5.0.

IDO1 protease activity in Hela cells, sequence (P14902 whole entry): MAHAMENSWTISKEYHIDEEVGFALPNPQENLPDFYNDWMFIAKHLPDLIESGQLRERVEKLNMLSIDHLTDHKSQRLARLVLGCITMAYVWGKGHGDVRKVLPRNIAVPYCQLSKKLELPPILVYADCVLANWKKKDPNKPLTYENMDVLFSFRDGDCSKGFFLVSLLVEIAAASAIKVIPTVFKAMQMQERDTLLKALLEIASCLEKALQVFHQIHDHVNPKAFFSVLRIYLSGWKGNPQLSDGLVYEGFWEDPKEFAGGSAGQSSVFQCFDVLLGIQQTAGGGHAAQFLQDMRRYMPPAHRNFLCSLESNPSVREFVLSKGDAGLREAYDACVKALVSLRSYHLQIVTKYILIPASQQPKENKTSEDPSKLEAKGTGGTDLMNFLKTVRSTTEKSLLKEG
human IDO1 protease, sequence (P14902 whole entry): as above

A word on the IC50: it is the midpoint of a concentration-inhibition curve. With `CCNS(=O)(=O)CCCNc1nonc1C(=NO)Nc1ccc(F)c(Br)c1` [Example 17, N-(3-bromo-4-fluorophenyl)-N′-hydroxyl-4-((3-(N-ethylsulfamoyl)propyl)amino)-1,2,5-oxadiazol-3-formamidine], the IC50 in assay [1] came to 0.01 µM.
For the molecule `O=S(=O)(CCCNc1nonc1C(=NO)Nc1ccc(F)c(Br)c1)NC1CC1` [Example 14, N-(3-bromo-4-fluorophenyl)-N′-hydroxyl-4-((3-(N-cyclopropylsulfamoyl)propyl)amino)-1,2,5-oxadiazol-3-formamidine], the IC50 in assay [2] came out at 0.099 µM; in assay [1], 0.037 µM.
On to `[2H]C([2H])([2H])NS(=O)(=O)CCCSc1nonc1/C(=N/O)Nc1cccc(Br)c1F` [Example 33, N-(3-bromo-2-fluorophenyl)-N′-hydroxyl-4-((3-(N-trideuteratedmethylsulfamoyl)propyl)sulfur)-1,2,5-oxadiazol-3-formamidine], for which, in assay [1], the IC50 came to 0.069 µM.
In the case of `CCNS(=O)(=O)CCNc1nonc1C(=NO)Nc1ccc(F)c(Br)c1` [Example 3, N-(3-bromo-4-fluorophenyl)-N′-hydroxyl-4-((2-(N-ethylsulfamoyl)ethyl)amino)-1,2,5-oxadiazol-3-formamidine], the IC50 is 0.074 µM in assay [2] and 0.035 µM in assay [1].
For `CC(C)NS(=O)(=O)CCCNc1nonc1/C(=N/O)Nc1ccc(F)c(Br)c1` [Example 13, N-(3-bromo-4-fluorophenyl)-N′-hydroxyl-4-((3-(N-isopropylsulfamoyl)propyl)amino)-1,2,5-oxadiazol-3-formamidine], the results for the IC50 in assay [2] and in assay [1] were 0.063 µM and 0.03 µM, respectively.
For the molecule `O=S(=O)(CCNc1nonc1/C(=N/O)Nc1ccc(F)c(Br)c1)NCC(F)F` [Example 6], the 50% inhibitory concentration (IC50) in assay [2] was found to be 0.087 µM; in assay [2] (listed as 11), 0.044 µM.
The molecule “N-(3-bromo-4-fluorophenyl)-N′-hydroxyl-4-((2-(morpholinylsulfamoyl)ethyl)amino)-1,2,5-oxadiazol-3-formamidine [Example 9]” returned an IC50 in assay [2] of 0.162 µM.
In the case of `O=S(=O)(CCCNc1nonc1C(=NO)Nc1ccc(F)c(Br)c1)NCCO` [Example 16, N-(3-bromo-4-fluorophenyl)-N′-hydroxyl-4-((3-(N-(2-hydroxylethyl)sulfamoyl)propyl)amino)-1,2,5-oxadiazol-3-formamidine], the IC50 in assay [2] stood at 0.051 µM; in assay [1] it was 0.032 µM.
For `[2H]C([2H])([2H])NS(=O)(=O)CCCCNc1nonc1/C(=N/O)Nc1ccc(F)c(Br)c1` [Example 29, N-(3-bromo-4-fluorophenyl)-N′-hydroxyl-4-((4-(N-deuteratedmethylsulfamoyl)butyl)amino)-1,2,5-oxadiazol-3-formamidine], the concentration for half-maximal inhibition (IC50) in assay [1] came to 0.02 µM.
For the molecule `O=S(=O)(CCNc1nonc1C(=NO)Nc1ccc(F)c(Br)c1)NCCO` [Example 5, N-(3-bromo-4-fluorophenyl)-N′-hydroxyl-4-((2-(N-(2-hydroxylethyl)sulfamoyl)ethyl)amino)-1,2,5-oxadiazol-3-formamidine], the IC50 in assay [2] turned out to be 0.049 µM; in assay [1] it was 0.015 µM.
On to `CC(C)NS(=O)(=O)CCNc1nonc1C(=NO)Nc1ccc(F)c(Br)c1` [Example 4, N-(3-bromo-4-fluorophenyl)-N′-hydroxyl-4-((2-(isopropylsulfamoyl)ethyl)amino)-1,2,5-oxadiazol-3-formamidine], for which, in assay [2], inhibition was half-maximal at 0.185 µM (IC50).
Regarding `[2H]C([2H])([2H])N(C([2H])([2H])[2H])S(=O)(=O)CCCCNc1nonc1/C(=N/O)Nc1ccc(F)c(Br)c1` [Example 30], the IC50 in assay [1] was determined as 0.024 µM.
Consider `CONS(=O)(=O)CCCNc1nonc1C(=NO)Nc1ccc(F)c(Br)c1` [Example 20, N-(3-bromo-4-fluorophenyl)-N′-hydroxyl-4-((3-(N-methoxylsulfamoyl)propyl)amino)-1,2,5-oxadiazol-3-formamidine], for which, in assay [2], the midpoint of inhibition, the IC50, lay at 0.099 µM.
With `[2H]C([2H])([2H])N(C([2H])([2H])[2H])S(=O)(=O)CCCNc1nonc1/C(=N/O)Nc1ccc(F)c(Br)c1` [Example 28], the IC50 in assay [2] turned out to be 0.106 µM; in assay [1], 0.016 µM.
As to `O=S(=O)(CCCCNc1nonc1/C(=N/O)Nc1ccc(F)c(Br)c1)N1CC(F)C1` [Example 26, N-(3-bromo-4-fluorophenyl)-4-((4-((3-fluorazetidin-1-yl)sulfonyl)butyl)amino)-N′-hydroxyl-1,2,5-oxadiazol-3-amide], the 50% inhibitory concentration (IC50) in assay [1] came to 0.113 µM.
In the case of `CNS(=O)(=O)CCNc1nonc1C(=NO)Nc1ccc(F)c(Br)c1` [Example 2, N-(3-bromo-4-fluorophenyl)-N′-hydroxyl-4-((2-(N-methylsulfamoyl)ethyl)amino)-1,2,5-oxadiazol-3-formamidine], the IC50 was found to be 0.054 µM in assay [2] and 0.019 µM in assay [1].
Regarding `O=S(=O)(CCCCNc1nonc1/C(=N/O)Nc1ccc(F)c(Br)c1)N1CCC1` [Example 25, 4-((4-(azetidin-1-ylsulfonyl)butyl)amino)-N-(3-bromo-4-fluorophenyl)-N′-hydroxyl-1,2,5-diazol-3-formamidine], in assay [1], the IC50 worked out at 0.093 µM.
Consider `CN(C)S(=O)(=O)CCNc1nonc1/C(=N/O)Nc1ccc(F)c(Br)c1` [Example 7, N-(3-bromo-4-fluorophenyl)-N′-hydroxyl-4-((2-N,N-dimethylsulfamoylethyl)amino)-1,2,5-oxadiazol-3-formamidine], for which it took 0.115 µM to reach half-maximal inhibition in assay [2] (IC50).
On to `[2H]C([2H])([2H])NS(=O)(=O)CCCSc1nonc1/C(=N/O)Nc1ccc(F)c(Br)c1` [Example 32], for which the concentration for half-maximal inhibition (IC50) in assay [1] was found to be 0.017 µM.
The molecule `O=S(=O)(CCCNc1nonc1C(=NO)Nc1ccc(F)c(Br)c1)NO` [Example 21, N-(3-bromo-4-fluorophenyl)-N′-hydroxyl-4-((3-(N-hydroxylsulfamoyl)propyl)amino)-1,2,5-oxadiazol-3-formamidine] gave an IC50 in assay [2] of 0.099 µM.
For the molecule `NS(=O)(=O)CCOCCNc1nonc1/C(=N/O)Nc1ccc(F)c(Br)c1` [Example 31, N-(3-bromo-4-fluorophenyl)-N′-hydroxyl-4-(2-(2-aminosulfonylethoxyl)-ethylamine)-1,2,5-diazol-3-formamidine], the IC50 in assay [1] came to 0.068 µM.
